Where “and” joins values, the source holds several entries; their conditions need not be identical. Equal entries are not always repeated.
Experiments:
Test in all cases: Post-emergence/greenhouse herbicidal test
Assay type in all cases: in vivo
Setaria viridis = system: Setaria viridis
Cyperus esculentus = settings: post-emergence, about 3 weeks
From the text: (§1) Procarbazone- and flucarbazone-sodium were used as 70 WG formulation. Fenoxaprop-P-ethyl was used in a mixture with mefenpyr-diethyl (75 g of mefenpyr-diethyl/l) as Ralon® Super 69 EW. Cinidon-ethyl and florasulam and iodosufuron in a mixture with mefenpyr-diethyl were used in the form of the finished formulations Lotus® 200 EC, Primus® 50 SC and Hussar® 5 WG (15% mefenpyr-diethyl), respectively. Amicarbazone was used as 70 WG formulation.
(§2) In pre- and post-emergence experiments, the spray liquor is usually admixed with a surfactant (Renex 36), at a concentration of 0.1%.
(§3) Test plants are grown under controlled conditions (temperature and light).
(§4) Following the spray application, the plant containers are kept in a greenhouse under constant light and temperature conditions.
(§5) After about 3 weeks, the degree of damage to the plants is rated in % damage in comparison to the development of the untreated control.
(§6) 0% =no damage (like untreated control)
(§7) 100% =total destruction/damage

Avena fatua = system: Avena fatua
From the text: as §1, §2, §3, §4, §5, §6, §7

Galium aparine = settings: post-emergence, about 3 weeks
From the text: as §1, §2, §3, §4, §5, §6, §7

Stellaria media = settings: post-emergence, about 3 weeks
From the text: as §1, §2, §3, §4, §5, §6, §7

Eriochloa villosa = settings: post-emergence, about 3 weeks
From the text: as §1, §2, §3, §4, §5, §6, §7

Solanum nigrum = settings: post-emergence, about 3 weeks
From the text: as §1, §2, §3, §4, §5, §6, §7

Echinochloa crus-galli = settings: post-emergence, about 3 weeks
From the text: as §1, §2, §3, §4, §5, §6, §7

Viola arvensis = settings: post-emergence, about 3 weeks
From the text: as §1, §2, §3, §4, §5, §6, §7

Amaranthus retroflexus = settings: post-emergence, about 3 weeks
From the text: as §1, §2, §3, §4, §5, §6, §7

Bromus secalinus = system: Bromus secalinus
From the text: as §1, §2, §3, §4, §5, §6, §7

Abutilon theophrasti = settings: post-emergence, about 3 weeks
From the text: as §1, §2, §3, §4, §5, §6, §7

Xanthium strumarium = settings: post-emergence, about 3 weeks
From the text: as §1, §2, §3, §4, §5, §6, §7

Lolium perenne = settings: post-emergence, about 3 weeks
From the text: as §1, §2, §3, §4, §5, §6, §7

Polygonum convolvolus = system: Polygonum convolvolus
From the text: as §1, §2, §3, §4, §5, §6, §7

Cassia tora = settings: post-emergence, about 3 weeks
From the text: as §1, §2, §3, §4, §5, §6, §7

Ipomoea hederacea = settings: post-emergence, about 3 weeks
From the text: as §1, §2, §3, §4, §5, §6, §7

Alopecurus myosuroides = settings: post-emergence, about 3 weeks
From the text: as §1, §2, §3, §4, §5, §6, §7

Datura strumarium = settings: post-emergence, about 3 weeks
From the text: as §1, §2, §3, §4, §5, §6, §7

Chenopodium album = settings: post-emergence, about 3 weeks
From the text: as §1, §2, §3, §4, §5, §6, §7

Matricaria inodora = settings: application rate 30 g ai/ha
From the text: as §1, §2, §3, §4, §5, §6, §7

[1] = 15 g of ai/ha, post-emergence, about 3 weeks
[2] = 30 g of ai/ha, post-emergence, about 3 weeks
[3] = 60 g of ai/ha, post-emergence, about 3 weeks
[4] = 125 g of ai/ha, post-emergence, about 3 weeks

Compound: CCCOc1nn(C(=O)NS(=O)(=O)c2ccccc2C(=O)OC)c(=O)n1C [Procarbazone-sodium, 2-(2-methoxycarbonyl-phenylsulphonylaminocarbonyl)-4-methyl-5-n-propoxy-2,4-dihydro-3H-1,2,4-triazol-3-one]
- Setaria viridis observed (Setaria viridis; application rate 15 g ai/ha): 0
- Setaria viridis observed (Setaria viridis; application rate 30 g ai/ha): 0
- Setaria viridis observed (Setaria viridis; application rate 60 g ai/ha): 20
- Cyperus esculentus observed (Cyperus esculentus; 15 g of ai/ha): 70%
- Cyperus esculentus observed (Cyperus esculentus; 30 g of ai/ha): 80%
- Avena fatua observed (Avena fatua; [1]): 70% and 50% and 80%
- Avena fatua observed (Avena fatua; [2]): 90% and 50%
- Avena fatua observed (Avena fatua; [3]): 60%
- Galium aparine observed (Galium aparine; 15 g of ai/ha): 20%
- Galium aparine observed (Galium aparine; 30 g of ai/ha): 30%
- Galium aparine observed (Galium aparine; 60 g of ai/ha): 40%
- Stellaria media observed (Stellaria media; 15 g of ai/ha): 50%
- Stellaria media observed (Stellaria media; 30 g of ai/ha): 60%
- Stellaria media observed (Stellaria media; 60 g of ai/ha): 70%
- Eriochloa villosa observed (Eriochloa villosa; 15 g of ai/ha): 0%
- Solanum nigrum observed (Solanum nigrum; 30 g of ai/ha): 70%
- Echinochloa crus-galli observed (Echinochloa crus-galli; 30 g of ai/ha): 90%
- Echinochloa crus-galli observed (Echinochloa crus-galli; 60 g of ai/ha): 90%
- Viola arvensis observed (Viola arvensis; 30 g of ai/ha): 50% and 70%
- Viola arvensis observed (Viola arvensis; 60 g of ai/ha): 80%
- Amaranthus retroflexus observed (Amaranthus retroflexus; 15 g of ai/ha): 80% and 98%
- Amaranthus retroflexus observed (Amaranthus retroflexus; 30 g of ai/ha): 90% and 98%
- Amaranthus retroflexus observed (Amaranthus retroflexus; 60 g of ai/ha): 98%
- Bromus secalinus observed (Bromus secalinus; [1]): 80% and 70%
- Bromus secalinus observed (Bromus secalinus; [2]): 80%
- Bromus secalinus observed (Bromus secalinus; [3]): 90%
- Bromus secalinus observed (Bromus secalinus; application rate 15 g ai/ha): 90
- Bromus secalinus observed (Bromus secalinus; application rate 30 g ai/ha): 90
- Abutilon theophrasti observed (Abutilon theophrasti; 60 g of ai/ha): 60%
- Xanthium strumarium observed (Xanthium strumarium; 15 g of ai/ha): 60%
- Xanthium strumarium observed (Xanthium strumarium; 30 g of ai/ha): 70% and 60%
- Xanthium strumarium observed (Xanthium strumarium; 60 g of ai/ha): 60%
- Lolium perenne observed (Lolium perenne; 15 g of ai/ha): 0%
- Lolium perenne observed (Lolium perenne; 30 g of ai/ha): 30% and 20%
- Lolium perenne observed (Lolium perenne; 60 g of ai/ha): 50%
- Polygonum convolvolus observed (Polygonum convolvolus; [2]): 0%
- Polygonum convolvolus observed (Polygonum convolvolus; [3]): 0%
- Polygonum convolvolus observed (Polygonum convolvolus; application rate 15 g ai/ha): 0
- Polygonum convolvolus observed (Polygonum convolvolus; application rate 30 g ai/ha): 0
- Polygonum convolvolus observed (Polygonum convolvolus; application rate 60 g ai/ha): 0
- Cassia tora observed (Cassia tora; 15 g of ai/ha): 50%
- Cassia tora observed (Cassia tora; 60 g of ai/ha): 30% and 50%
- Ipomoea hederacea observed (Ipomoea hederacea; 15 g of ai/ha): 60%
- Ipomoea hederacea observed (Ipomoea hederacea; 30 g of ai/ha): 70%
- Ipomoea hederacea observed (Ipomoea hederacea; 60 g of ai/ha): 70%
- Alopecurus myosuroides observed (Alopecurus myosuroides; 15 g of ai/ha): 60% and 80%
- Alopecurus myosuroides observed (Alopecurus myosuroides; 30 g of ai/ha): 70% and 80%
- Alopecurus myosuroides observed (Alopecurus myosuroides; 60 g of ai/ha): 70% and 90%

Compound: CCOC(=O)[C@@H](C)Oc1ccc(Oc2nc3ccc(Cl)cc3o2)cc1 [Fenoxaprop-P-ethyl, ethyl (R)-2-[4-(6-chloro-benzoxazol-2-yl-oxy)-phenoxy]-propanoate]
- Galium aparine observed (Galium aparine; 15 g of ai/ha): 0%
- Galium aparine observed (Galium aparine; 30 g of ai/ha): 0%
- Galium aparine observed (Galium aparine; 60 g of ai/ha): 0%
- Stellaria media observed (Stellaria media; 30 g of ai/ha): 0%
- Stellaria media observed (Stellaria media; 60 g of ai/ha): 0%
- Solanum nigrum observed (Solanum nigrum; 15 g of ai/ha): 0%
- Solanum nigrum observed (Solanum nigrum; 30 g of ai/ha): 0%
- Solanum nigrum observed (Solanum nigrum; 60 g of ai/ha): 0%
- Viola arvensis observed (Viola arvensis; 15 g of ai/ha): 0%
- Viola arvensis observed (Viola arvensis; 30 g of ai/ha): 0%
- Viola arvensis observed (Viola arvensis; 60 g of ai/ha): 0%
- Amaranthus retroflexus observed (Amaranthus retroflexus; 30 g of ai/ha): 0%
- Amaranthus retroflexus observed (Amaranthus retroflexus; 60 g of ai/ha): 0%
- Bromus secalinus observed (Bromus secalinus; [2]): 0%
- Bromus secalinus observed (Bromus secalinus; [3]): 0%
- Datura strumarium observed (Datura strumarium; 30 g of ai/ha): 0%
- Datura strumarium observed (Datura strumarium; 60 g of ai/ha): 0%
- Xanthium strumarium observed (Xanthium strumarium; 30 g of ai/ha): 0%
- Xanthium strumarium observed (Xanthium strumarium; 60 g of ai/ha): 0%
- Lolium perenne observed (Lolium perenne; 30 g of ai/ha): 0%
- Lolium perenne observed (Lolium perenne; 60 g of ai/ha): 0%
- Chenopodium album observed (Chenopodium album; 30 g of ai/ha): 0%
- Chenopodium album observed (Chenopodium album; 60 g of ai/ha): 0%
- Polygonum convolvolus observed (Polygonum convolvolus; [2]): 0%
- Polygonum convolvolus observed (Polygonum convolvolus; [3]): 0%
- Ipomoea hederacea observed (Ipomoea hederacea; 30 g of ai/ha): 0%
- Ipomoea hederacea observed (Ipomoea hederacea; 60 g of ai/ha): 0%
- Alopecurus myosuroides observed (Alopecurus myosuroides; 15 g of ai/ha): 0%
- Alopecurus myosuroides observed (Alopecurus myosuroides; 30 g of ai/ha): 0%

Compound: CC(C)c1nn(C(=O)NC(C)(C)C)c(=O)n1N [Amicarbazone, 4-amino-N-(1,1-dimethyl-ethyl)-4,5-dihydro-3-(1-methyl-ethyl)-5-oxo-1H-1,2,4-triazole-1-carboxamide]
- Avena fatua observed (Avena fatua; application rate 30 g ai/ha): 0
- Stellaria media observed (Stellaria media; 60 g of ai/ha): 80%
- Eriochloa villosa observed (Eriochloa villosa; 125 g of ai/ha): 70%
- Viola arvensis observed (Viola arvensis; 30 g of ai/ha): 70%
- Matricaria inodora observed (Matricaria inodora): 60
- Abutilon theophrasti observed (Abutilon theophrasti; 30 g of ai/ha): 80%
- Xanthium strumarium observed (Xanthium strumarium; 30 g of ai/ha): 80%
- Cassia tora observed (Cassia tora; 30 g of ai/ha): 40%

Compound: CC(C)N(C(=O)COc1nnc(C(F)(F)F)s1)c1ccc(F)cc1 [Flufenacet, N-(4-fluorophenyl)-N-isopropyl-2-(5-trifluoromethyl-1,3,4-thiadiazol-2-yl-oxy)-acetamide]
- Avena fatua observed (Avena fatua; [4]): 70%
- Amaranthus retroflexus observed (Amaranthus retroflexus; 60 g of ai/ha): 0%
- Amaranthus retroflexus observed (Amaranthus retroflexus; 125 g of ai/ha): 0%
- Polygonum convolvolus observed (Polygonum convolvolus; [4]): 0%

Source: patent US20030211942A1, “Aryl sulfonyl amino carbonyl triazole based selective herbicides” (priority 2000, published 2003)
